Data on three compounds can be found in patent US20050043326A1, “Compounds” (Pfizer Inc, priority 2003, published 2005).

The subject of assay [1] is TNFα release from human peripheral blood mononuclear cells. Put plainly: Inhibition of TNFα release from LPS-stimulated human peripheral blood mononuclear cells (TNFα screen). As to conditions: PBMC, 18 hours incubation, TNFα in supernatant by ELISA. The assay is classed as cell-based. The procedure:
Venous blood is collected from healthy volunteers and the mononuclear cells purified by centrifugation through Histopaque (Ficoll) cushions. TNFα production from these cells is stimulated by addition of lipopolysaccharide. After 18 hours incubation in the presence of LPS, the cell supernatant is removed and the concentration of TNFα in the supernatant determined by ELISA.
(§1) Data are presented below for the Examples in which the TNFα and PDE4 inhibition are presented as IC50 values in nM.

The subject of another assay is PDE4. In words: PDE4 inhibition: hydrolysis of tritium labelled cAMP to AMP, SPA bead scintillation counting. It counts as biochemical. Particulars: tritium labelled cAMP incubated with PDE4, yttrium silicate SPA beads. The method, then:
The PDE4 inhibitory activity of the nicotinamide derivatives of the formula (I) is determined by the ability of compounds to inhibit the hydrolysis of cAMP to AMP by PDE4 (Thompson J W, Teraski W L, Epstein P M, Strada S J., “Assay of nucleotidephosphodiesterase and resolution of multiple molecular forms of the isoenzyme”, Advances in cyclic nucleotides research, edited by Brooker G, Greengard P, Robinson G A. Raven Press, New York 1979, 10, p. 69-92). Tritium labelled cAMP is incubated with PDE4. Following incubation, the radiolabelled AMP produced is able to bind yttrium silicate SPA beads. These SPA beads subsequently produce light that can be quantified by scintillation counting. The addition of a PDE4 inhibitor prevents the formation of AMP from cAMP and counts are diminished. The IC50 of a PDE4 inhibitor can be defined as the concentration of a compound that leads to a 50% reduction in counts compared to the PDE4 only (no inhibitor) control wells.
as §1

pIC50: −log10 of the molar value.

As to `Cc1ccc(C(=O)N[C@H]2CC[C@@H](NC(=O)c3cc(F)cnc3OC3CCSCC3)CC2)c(O)c1` [Example 63, Syn-5-Fluoro-N-[4-(2-hydroxy-4-methyl-benzoylamino)-cyclohexyl]-2-(tetrahydro-thiopyran-4-yloxy)-nicotinamide], the negative logarithm of the IC50 (pIC50) – broadly, the IC50 on a negative log10 scale, so that one unit is a factor of ten – in assay [1] is 11.70; in the assay with PDE4, 9.30.

On to `O=C(N[C@H]1CC[C@@H](NS(=O)(=O)c2cccc3cccnc23)CC1)c1cccnc1OC1CCSCC1` [Example 65], for which the negative-log IC50 (pIC50) is 10.70 in assay [1] and 8.74 in the assay with PDE4.

For the compound `O=C(N[C@H]1CC[C@@H](NS(=O)(=O)c2c(O)ccc3nsnc23)CC1)c1cc(F)cnc1OC1CCSCC1` [Example 74, Syn-5-Fluoro-N-[4-(5-hydroxy-benzo[1,2,5]thiadiazole-4-sulfonylamino)-cyclohexyl]-2-(tetrahydro-thiopyran-4-yloxy)-nicotinamide], the pIC50 was 9.00 in assay [1] and 8.46 in the assay with PDE4.
